Laboratory results published in patent EP3154958B1, “PHOSPHATIDYLINOSITOL 3-KINASE INHIBITORS” (Gilead Sciences, Inc., priority 2014, dated 2015).

What was measured:
Format in all cases: biochemical
PI3Kβ = target: T1, PI3Kβ (Homo sapiens, UniProt P42338); assay: TR-FRET enzymatic activity assay, PI3Kβ; settings: recombinant heterodimeric PI3Kβ 25-50 pM, 2× Km ATP, 30 minutes at 25°C
T1 construct: made in house
Experimental: (§1) The compounds of formula (I) were characterized for their enzymatic activity against the PI3K isoforms. The activities were measured using a time-resolved fluorescence resonance energy transfer (TR-FRET) assay.

PI3Kδ = target: T2, PI3Kδ (Homo sapiens, UniProt O00329); assay: TR-FRET enzymatic activity assay, PI3Kδ; settings: recombinant heterodimeric PI3Kδ 25-50 pM, 2× Km ATP, 30 minutes at 25°C
T2 construct: made in house
T2 sequence (O00329 whole entry): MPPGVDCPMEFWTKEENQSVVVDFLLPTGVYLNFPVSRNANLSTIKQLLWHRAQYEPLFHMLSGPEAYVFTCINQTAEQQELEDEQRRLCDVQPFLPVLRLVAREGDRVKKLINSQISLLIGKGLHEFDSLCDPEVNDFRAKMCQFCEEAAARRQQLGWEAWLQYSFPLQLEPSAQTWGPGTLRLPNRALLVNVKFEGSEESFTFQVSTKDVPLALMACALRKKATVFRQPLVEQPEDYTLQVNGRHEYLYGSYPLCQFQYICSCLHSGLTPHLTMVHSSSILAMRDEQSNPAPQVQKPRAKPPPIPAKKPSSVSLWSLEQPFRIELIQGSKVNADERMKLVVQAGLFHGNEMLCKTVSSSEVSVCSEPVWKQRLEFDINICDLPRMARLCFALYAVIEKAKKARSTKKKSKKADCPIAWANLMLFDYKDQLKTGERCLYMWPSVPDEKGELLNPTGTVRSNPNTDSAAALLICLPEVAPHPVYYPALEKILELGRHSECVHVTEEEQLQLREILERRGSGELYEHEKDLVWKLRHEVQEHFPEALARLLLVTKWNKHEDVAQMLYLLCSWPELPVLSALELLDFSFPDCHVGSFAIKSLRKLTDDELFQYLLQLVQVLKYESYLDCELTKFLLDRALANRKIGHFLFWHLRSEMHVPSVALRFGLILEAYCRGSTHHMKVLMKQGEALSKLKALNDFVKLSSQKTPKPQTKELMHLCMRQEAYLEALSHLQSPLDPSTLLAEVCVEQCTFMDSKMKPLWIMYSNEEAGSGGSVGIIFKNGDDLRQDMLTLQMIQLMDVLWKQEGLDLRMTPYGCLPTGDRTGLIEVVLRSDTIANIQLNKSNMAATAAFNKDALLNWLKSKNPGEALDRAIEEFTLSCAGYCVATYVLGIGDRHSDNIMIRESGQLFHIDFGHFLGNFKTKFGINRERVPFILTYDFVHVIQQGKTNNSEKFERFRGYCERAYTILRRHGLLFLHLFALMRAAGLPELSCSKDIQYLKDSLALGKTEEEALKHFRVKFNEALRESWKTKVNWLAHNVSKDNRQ
T2 sequence (P27986 whole entry partner): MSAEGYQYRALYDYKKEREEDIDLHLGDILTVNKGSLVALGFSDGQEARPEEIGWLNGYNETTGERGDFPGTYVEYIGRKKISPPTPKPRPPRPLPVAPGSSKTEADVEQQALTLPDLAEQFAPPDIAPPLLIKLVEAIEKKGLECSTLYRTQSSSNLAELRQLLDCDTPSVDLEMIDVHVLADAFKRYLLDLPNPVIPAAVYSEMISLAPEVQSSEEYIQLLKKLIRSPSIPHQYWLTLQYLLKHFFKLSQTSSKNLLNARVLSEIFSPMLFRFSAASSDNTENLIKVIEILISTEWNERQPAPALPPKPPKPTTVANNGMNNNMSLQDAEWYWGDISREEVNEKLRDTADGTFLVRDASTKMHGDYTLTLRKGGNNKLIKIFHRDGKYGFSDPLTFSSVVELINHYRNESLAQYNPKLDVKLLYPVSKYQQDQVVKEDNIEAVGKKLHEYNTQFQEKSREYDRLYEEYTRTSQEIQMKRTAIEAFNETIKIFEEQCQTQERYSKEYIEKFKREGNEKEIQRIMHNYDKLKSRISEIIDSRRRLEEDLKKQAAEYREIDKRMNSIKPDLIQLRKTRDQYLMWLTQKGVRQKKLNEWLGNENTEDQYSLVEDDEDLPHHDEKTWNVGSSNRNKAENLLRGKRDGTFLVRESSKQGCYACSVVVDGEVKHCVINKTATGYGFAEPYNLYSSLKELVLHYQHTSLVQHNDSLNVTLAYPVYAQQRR
Experimental: as §1

PI3Kγ = target: T3, PI3Kγ (Homo sapiens, UniProt P48736); assay: TR-FRET enzymatic activity assay, PI3Kγ; settings: recombinant heterodimeric PI3Kγ 2 nM, 2× Km ATP, 30 minutes at 25°C
T3 construct: made in house
T3 sequence (P48736 whole entry): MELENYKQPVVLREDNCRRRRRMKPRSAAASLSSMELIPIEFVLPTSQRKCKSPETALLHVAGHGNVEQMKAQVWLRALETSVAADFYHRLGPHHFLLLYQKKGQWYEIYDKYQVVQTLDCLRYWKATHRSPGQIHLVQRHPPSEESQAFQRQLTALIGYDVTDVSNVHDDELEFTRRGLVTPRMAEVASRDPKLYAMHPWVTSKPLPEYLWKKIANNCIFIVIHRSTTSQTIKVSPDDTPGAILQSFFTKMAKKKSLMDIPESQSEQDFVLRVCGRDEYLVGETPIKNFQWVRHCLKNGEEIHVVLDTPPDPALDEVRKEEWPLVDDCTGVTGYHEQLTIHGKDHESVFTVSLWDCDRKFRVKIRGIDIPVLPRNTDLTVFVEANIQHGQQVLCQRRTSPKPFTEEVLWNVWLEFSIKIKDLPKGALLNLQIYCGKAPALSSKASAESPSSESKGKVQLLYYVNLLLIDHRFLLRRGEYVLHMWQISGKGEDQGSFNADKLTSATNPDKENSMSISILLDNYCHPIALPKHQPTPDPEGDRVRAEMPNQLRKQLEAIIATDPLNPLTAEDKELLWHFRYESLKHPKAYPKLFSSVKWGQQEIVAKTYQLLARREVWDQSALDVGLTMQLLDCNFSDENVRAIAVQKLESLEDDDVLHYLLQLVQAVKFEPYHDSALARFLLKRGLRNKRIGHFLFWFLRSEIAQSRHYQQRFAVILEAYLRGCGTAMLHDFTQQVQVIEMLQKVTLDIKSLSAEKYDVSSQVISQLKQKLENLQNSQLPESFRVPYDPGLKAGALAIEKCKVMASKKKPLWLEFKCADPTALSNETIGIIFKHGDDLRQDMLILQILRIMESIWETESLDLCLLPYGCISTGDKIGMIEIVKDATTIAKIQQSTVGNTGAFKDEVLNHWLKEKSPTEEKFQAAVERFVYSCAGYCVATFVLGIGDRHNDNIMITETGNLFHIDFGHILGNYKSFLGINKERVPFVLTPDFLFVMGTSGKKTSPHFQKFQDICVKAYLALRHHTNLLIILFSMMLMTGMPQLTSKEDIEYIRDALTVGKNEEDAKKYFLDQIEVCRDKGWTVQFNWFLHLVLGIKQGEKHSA
T3 sequence (Q8WYR1 whole entry partner): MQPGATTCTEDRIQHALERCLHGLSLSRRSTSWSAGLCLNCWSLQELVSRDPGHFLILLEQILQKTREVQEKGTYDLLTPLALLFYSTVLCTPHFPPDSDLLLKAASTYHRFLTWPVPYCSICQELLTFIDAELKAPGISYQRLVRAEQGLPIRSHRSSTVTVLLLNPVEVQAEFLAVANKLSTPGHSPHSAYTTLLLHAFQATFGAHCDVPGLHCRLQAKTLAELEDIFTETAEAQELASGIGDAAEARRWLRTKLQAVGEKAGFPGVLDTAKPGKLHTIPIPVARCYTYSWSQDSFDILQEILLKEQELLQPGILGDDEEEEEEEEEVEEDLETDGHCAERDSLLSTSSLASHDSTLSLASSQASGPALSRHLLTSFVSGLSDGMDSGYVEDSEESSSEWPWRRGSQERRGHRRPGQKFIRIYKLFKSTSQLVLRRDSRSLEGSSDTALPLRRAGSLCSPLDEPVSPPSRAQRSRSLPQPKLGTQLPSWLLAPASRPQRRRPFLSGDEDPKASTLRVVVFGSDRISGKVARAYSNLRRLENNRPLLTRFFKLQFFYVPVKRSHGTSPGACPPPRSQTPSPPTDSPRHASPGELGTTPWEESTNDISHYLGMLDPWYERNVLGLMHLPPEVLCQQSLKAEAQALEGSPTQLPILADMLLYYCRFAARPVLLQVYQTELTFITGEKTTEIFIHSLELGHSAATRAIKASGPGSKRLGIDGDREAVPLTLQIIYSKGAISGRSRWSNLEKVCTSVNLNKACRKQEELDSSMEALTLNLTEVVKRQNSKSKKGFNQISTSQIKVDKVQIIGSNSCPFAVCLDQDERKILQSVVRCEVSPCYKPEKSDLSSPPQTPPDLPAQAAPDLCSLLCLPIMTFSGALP
Experimental: as §1

T1 sequence (P42338 whole entry): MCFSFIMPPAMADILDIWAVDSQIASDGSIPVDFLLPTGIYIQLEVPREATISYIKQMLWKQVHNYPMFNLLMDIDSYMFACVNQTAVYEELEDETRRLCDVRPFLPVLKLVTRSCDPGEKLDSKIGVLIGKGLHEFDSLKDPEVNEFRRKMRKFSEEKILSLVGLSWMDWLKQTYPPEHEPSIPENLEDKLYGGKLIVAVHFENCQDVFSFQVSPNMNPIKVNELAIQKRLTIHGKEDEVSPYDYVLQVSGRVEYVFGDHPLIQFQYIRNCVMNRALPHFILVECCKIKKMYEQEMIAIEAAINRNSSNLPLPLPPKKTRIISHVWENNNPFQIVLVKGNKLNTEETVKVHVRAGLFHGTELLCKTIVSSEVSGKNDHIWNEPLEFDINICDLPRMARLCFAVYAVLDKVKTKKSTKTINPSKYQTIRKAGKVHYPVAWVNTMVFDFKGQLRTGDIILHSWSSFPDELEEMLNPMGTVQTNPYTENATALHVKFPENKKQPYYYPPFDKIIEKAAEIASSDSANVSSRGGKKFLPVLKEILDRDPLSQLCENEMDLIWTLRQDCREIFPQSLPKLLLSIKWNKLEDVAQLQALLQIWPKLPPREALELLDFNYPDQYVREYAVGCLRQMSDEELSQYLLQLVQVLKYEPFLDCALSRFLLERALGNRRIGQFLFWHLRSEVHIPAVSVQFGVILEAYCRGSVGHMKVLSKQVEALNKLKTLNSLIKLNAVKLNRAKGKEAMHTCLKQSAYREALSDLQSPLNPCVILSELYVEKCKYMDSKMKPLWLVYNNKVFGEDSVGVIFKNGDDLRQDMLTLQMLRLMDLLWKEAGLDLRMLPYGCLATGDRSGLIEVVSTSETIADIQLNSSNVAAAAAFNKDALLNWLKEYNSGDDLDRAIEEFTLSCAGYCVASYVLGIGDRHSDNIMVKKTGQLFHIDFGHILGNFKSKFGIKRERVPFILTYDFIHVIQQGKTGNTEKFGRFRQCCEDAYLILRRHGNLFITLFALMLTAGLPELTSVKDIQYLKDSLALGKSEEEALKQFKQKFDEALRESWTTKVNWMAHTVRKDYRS
T1 sequence (P27986 whole entry partner): as the sequence (P27986 whole entry partner) above

SMILES	IC50 (PI3Kβ)	IC50 (PI3Kδ)	IC50 (PI3Kγ)
C[C@H](Nc1nc(N)nc(N)c1C#N)c1nc2cccc(Cl)c2c(=O)n1N1CCNC2(CC2)C1 [Compound 7, (S)-2,4-diamino-6-((1-(5-chloro-4-oxo-3-(4,7-diazaspiro[2.5]octan-7-yl)-3,4-dihydroquinazolin-2-yl)ethyl)amino)pyrimidine-5-carbonitrile]	2 nM	0.8 nM	860 nM
C[C@H](Nc1nc(N)nc(N)c1C#N)c1nc2cccc(Cl)c2c(=O)n1[C@H]1CCCNCC1 [Compound 8, 2,4-diamino-6-(((S)-1-(3-((S)-azepan-4-yl)-5-chloro-4-oxo-3,4-dihydroquinazolin-2-yl)ethyl)amino)pyrimidine-5-carbonitrile]	62 nM	2 nM	> 10000 nM
C[C@H](Nc1nc(N)nc(N)c1C#N)c1nc2cccc(Cl)c2c(=O)n1[C@@H]1CCCNCC1 [Compound 9, 2,4-diamino-6-(((S)-1-(3-((R)-azepan-4-yl)-5-chloro-4-oxo-3,4-dihydroquinazolin-2-yl)ethyl)amino)pyrimidine-5-carbonitrile]	9 nM	2 nM	> 10000 nM
C[C@H](Nc1nc(N)nc(N)c1Cl)c1nc2cccc(Cl)c2c(=O)n1[C@H]1CCCNCC1 [Compound 12, 3-((S)-azepan-4-yl)-5-chloro-2-((S)-1-((2,6-diamino-5-chloropyrimidin-4-yl)amino)ethyl)quinazolin-4(3H)-one]	660 nM	56 nM	> 10000 nM
C[C@H](Nc1nc(N)nc(N)c1Cl)c1nc2cccc(Cl)c2c(=O)n1[C@@H]1CCCNCC1 [Compound 13, 3-((R)-azepan-4-yl)-5-chloro-2-((S)-1-((2,6-diamino-5-chloropyrimidin-4-yl)amino)ethyl)quinazolin-4(3H)-one]	180 nM	33 nM	> 10000 nM
C[C@H](Nc1ncnc2scnc12)c1nc2cccc(Cl)c2c(=O)n1C1CCNCC1 [Compound 18, (S)-5-chloro-3-(piperidin-4-yl)-2-(1-(thiazolo[5,4-d]pyrimidin-7-ylamino)ethyl)quinazolin-4(3H)-one]	63 nM	9 nM	> 10000 nM
C[C@H](Nc1nc(N)nc(N)c1Cl)c1nc2c(F)ccc(Cl)c2c(=O)n1N1CCNCC1 [Compound 20, (S)-5-chloro-2-(1-((2,6-diamino-5-chloropyrimidin-4-yl)amino)ethyl)-8-fluoro-3-(piperazin-1-yl)quinazolin-4(3H)-one]	40 nM	20 nM	> 10000 nM
Cc1nc(N)nc(N[C@@H](C)c2nc3c(F)ccc(Cl)c3c(=O)n2N2CCNCC2)c1C#N [Compound 21, (S)-2-amino-4-((1-(5-chloro-8-fluoro-4-oxo-3-(piperazin-1-yl)-3,4-dihydroquinazolin-2-yl)ethyl)amino)-6-methylpyrimidine-5-carbonitrile]	2 nM	0.7 nM	890 nM
CC[C@H](Nc1nc(N)nc(N)c1C#N)c1nc2cccc(Cl)c2c(=O)n1C1CCNCC1 [Compound 22, (S)-2,4-diamino-6-((1-(5-chloro-4-oxo-3-(piperidin-4-yl)-3,4-dihydroquinazolin-2-yl)propyl)amino)pyrimidine-5-carbonitrile]	15 nM	5 nM	> 10000 nM
CC[C@H](Nc1nc(N)nc(C)c1C#N)c1nc2cccc(Cl)c2c(=O)n1C1CCNCC1 [Compound 23, (S)-2-amino-4-((1-(5-chloro-4-oxo-3-(piperidin-4-yl)-3,4-dihydroquinazolin-2-yl)propyl)amino)-6-methylpyrimidine-5-carbonitrile]	3 nM	5 nM	> 10000 nM
Cc1nc(N)nc(N[C@@H](C)c2nc3cccc(Cl)c3c(=O)n2C2CCNCC2)c1C#N [Compound 24, (S)-2-amino-4-((1-(5-chloro-4-oxo-3-(piperidin-4-yl)-3,4-dihydroquinazolin-2-yl)ethyl)amino)-6-methylpyrimidine-5-carbonitrile]	2 nM	3 nM	> 10000 nM

Continued, values first:

IC50 (PI3Kβ)	IC50 (PI3Kδ)	IC50 (PI3Kγ)	SMILES
100 nM	25 nM	> 10000 nM	C[C@H](Nc1nc(N)nc(N)c1Cl)c1nc2cccc(Cl)c2c(=O)n1C1CCNCC1 [Compound 25, (S)-5-chloro-2-(1-((2,6-diamino-5-chloropyrimidin-4-yl)amino)ethyl)-3-(piperidin-4-yl)quinazolin-4(3H)-one]
2 nM	2 nM	> 10000 nM	C[C@H](Nc1nc(N)nc(N)c1C#N)c1nc2cccc(Cl)c2c(=O)n1C1CCNCC1 [Compound 26, (S)-2,4-diamino-6-((1-(5-chloro-4-oxo-3-(piperidin-4-yl)-3,4-dihydroquinazolin-2-yl)ethyl)amino)pyrimidine-5-carbonitrile]
170 nM	22 nM	6400 nM	C[C@H](Nc1nc(N)nc(N)c1C#N)c1nc2cccc(Cl)c2c(=O)n1[C@H]1CCCNC1 [Compound 28, 2,4-diamino-6-(((S)-1-(5-chloro-4-oxo-3-((S)-piperidin-3-yl)-3,4-dihydroquinazolin-2-yl)ethyl)amino)pyrimidine-5-carbonitrile]
91 nM	31 nM	3100 nM	C[C@H](Nc1nc(N)nc(N)c1C#N)c1nc2cccc(Cl)c2c(=O)n1C1CNC1 [Compound 29, (S)-2,4-diamino-6-((1-(3-(azetidin-3-yl)-5-chloro-4-oxo-3,4-dihydroquinazolin-2-yl)ethyl)amino)pyrimidine-5-carbonitrile]
350 nM	140 nM	> 10000 nM	C[C@H](Nc1nc(N)nc(N)c1C#N)c1nc2cccc(Cl)c2c(=O)n1[C@H]1CCNC1 [Compound 30, 2,4-diamino-6-(((S)-1-(5-chloro-4-oxo-3-((S)-pyrrolidin-3-yl)-3,4-dihydroquinazolin-2-yl)ethyl)amino)pyrimidine-5-carbonitrile]
78 nM	19 nM	> 10000 nM	C[C@H](Nc1nc(N)nc(N)c1C#N)c1nc2cccc(Cl)c2c(=O)n1[C@@H]1CCNC1 [Compound 31, 2,4-diamino-6-(((S)-1-(5-chloro-4-oxo-3-((R)-pyrrolidin-3-yl)-3,4-dihydroquinazolin-2-yl)ethyl)amino)pyrimidine-5-carbonitrile]
32 nM	150 nM	> 10000 nM	C[C@H](NC(=O)c1nc(Cl)cnc1N)c1nc2cccc(Cl)c2c(=O)n1N1CCNCC1 [Compound 32, (S)-3-amino-6-chloro-N-(1-(5-chloro-4-oxo-3-(piperazin-1-yl)-3,4-dihydroquinazolin-2-yl)ethyl)pyrazine-2-carboxamide]
4 nM	14 nM	7400 nM	C[C@H](NC(=O)c1nc(Cl)c(N)nc1N)c1nc2cccc(Cl)c2c(=O)n1N1CCNCC1 [Compound 33, (S)-3,5-diamino-6-chloro-N-(1-(5-chloro-4-oxo-3-(piperazin-1-yl)-3,4-dihydroquinazolin-2-yl)ethyl)pyrazine-2-carboxamide]
83 nM	10 nM	> 10000 nM	C[C@H](Nc1ncnc2ccoc12)c1nc2cccc(Cl)c2c(=O)n1N1CCNCC1 [Compound 34, (S)-5-chloro-2-(1-(furo[3,2-d]pyrimidin-4-ylamino)ethyl)-3-(piperazin-1-yl)quinazolin-4(3H)-one]
570 nM	93 nM	> 10000 nM	C[C@H](Nc1ncnc2scc(Cl)c12)c1nc2cccc(Cl)c2c(=O)n1N1CCNCC1 [Compound 35, (S)-5-chloro-2-(1-((5-chlorothieno[2,3-d]pyrimidin-4-yl)amino)ethyl)-3-(piperazin-1-yl)quinazolin-4(3H)-one]
6 nM	56 nM	5700 nM	C[C@H](NC(=O)c1c(N)nn2cccnc12)c1nc2cccc(Cl)c2c(=O)n1N1CCNCC1 [Compound 36, (S)-2-amino-N-(1-(5-chloro-4-oxo-3-(piperazin-1-yl)-3,4-dihydroquinazolin-2-yl)ethyl)pyrazolo[1,5-a]pyrimidine-3-carboxamide]
39 nM	3 nM	> 10000 nM	C[C@H](Nc1ncnc(N)c1Cl)c1nc2cccc(Cl)c2c(=O)n1N1CCNCC1 [Compound 37, (S)-2-(1-((6-amino-5-chloropyrimidin-4-yl)amino)ethyl)-5-chloro-3-(piperazin-1-yl)quinazolin-4(3H)-one]
220 nM	6 nM	1500 nM	C[C@H](Nc1nc(N)nc(N)c1C#N)c1nc2cccc(Cl)c2c(=O)n1C1CCNCC1(F)F (stereo partly drawn) [Compound 38, 2,4-diamino-6-(((1S)-1-(5-chloro-3-(3,3-difluoropiperidin-4-yl)-4-oxo-3,4-dihydroquinazolin-2-yl)ethyl)amino)pyrimidine-5-carbonitrile]
4 nM	3 nM	5400 nM	C[C@H](Nc1nc(N)nc(N)c1C#N)c1nc2c(F)ccc(F)c2c(=O)n1N1CCNCC1 [Compound 39, (S)-2,4-diamino-6-((1-(5,8-difluoro-4-oxo-3-(piperazin-1-yl)-3,4-dihydroquinazolin-2-yl)ethyl)amino)pyrimidine-5-carbonitrile]
200 nM	26 nM	> 10000 nM	C[C@H](Nc1ncnn2ccnc12)c1nc2c(F)ccc(F)c2c(=O)n1N1CCNCC1 [Compound 40, (S)-5,8-difluoro-2-(1-(imidazo[2,1-f][1,2,4]triazin-4-ylamino)ethyl)-3-(piperazin-1-yl)quinazolin-4(3H)-one]
210 nM	24 nM	> 10000 nM	O=c1c2c(F)ccc(F)c2nc([C@@H](Nc2ncnn3ccnc23)C2CC2)n1N1CCNCC1 [Compound 41, (S)-2-(cyclopropyl(imidazo[2,1-f][1,2,4]triazin-4-ylamino)methyl)-5,8-difluoro-3 - (piperazin-1-yl)quinazolin-4(3H)-one]
